Assay results: patent US20220047507A1, “MELFLUFEN DOSAGE REGIMENS FOR CANCER” (ONCOPEPTIDES AB, priority 2015, published 2022)

How the values were obtained:
[1] = test system: relapsed-refractory multiple myeloma (RRMM) patients; assay: Safety in patients with RRMM, Example 2a; format: in vivo, human; details: 40 mg
Experimental: (§1) Example 2: An open label single arm extension on the dose of 40 mg over 30 minutes of Example 1. Intravenous melflufen was administered over 30 minutes on Day 1 of a 21-day cycle or 28-day cycle (in combination with 40 mg dexamethasone (oral or intravenous) treatment on Days 1, 8 and 15) for at least 2 cycles, and up to the stated number of cycles. The cycle length was extended during the Example 2 Clinical Trial from 21 to 28 days per a protocol amendment to allow for a better recovery of neutrophils and thrombocytes before a new cycle is initiated.
(§2) Example 2a results are from a data cut-off of time point (a). Example 2b results are from a data cut-off of time point (bi) for the efficacy data, which was approximately 12 months after time point (a); and from a data cut-off of time point (bii) for the safety data, which was approximately 10 months after time point (a).
As mentioned above, by the data cut-off for Example 2a 38 patients had been dosed with 162 doses of melflufen hydrochloride 40 mg over 30 minutes. Median number of cycles was 3 (1-13) and median duration of treatment was 13 weeks (2-51 weeks). The dose intensity was 96% (77-100).

MM cells = details: in vitro; cited from earlier work
[2] = test system: relapsed-refractory multiple myeloma (RRMM) patients; assay: Efficacy in patients with RRMM, Example 2a; format: in vivo, human
Experimental: as §1, §2
By the data cut-off point for Example 2a, 38 patients with relapsing MM had been dosed with 40 mg of melflufen hydrochloride (the 40 mg dosage excludes the mass of the salt component) administered over 30 minutes every 3 weeks (21 days) in combination with weekly dexamethasone (day 1, 8 and 15). 162 doses of melflufen were administered in total. The median number of cycles initiated was 3 (1-13) and the median duration of treatment was 13 weeks (2-51). The mean dose intensity was 96% (77-100). By the data cut-off point, ten patients were still in treatment, 2 had completed treatment and 26 patients discontinued from treatment (15 due to AEs, 8 due to PD, 2 deaths and 1 for other reasons). Twenty-seven patients were still in the study (10 patients in treatment and 17 in follow-up), while 11 patients were off study (8 patients due to death, 1 due to PD, 1 withdrew consent and 1 lost in follow-up).
Twenty-seven patients were evaluable for efficacy (per the protocol, these patients had received at least two cycles of melflufen and had adequate follow-up assessments). 11 patients were not evaluable for response due to rapid early progression (7), early termination due to adverse events (3) or too early to assess (1).

[3] = Evaluable ≥ 2 cycles, n 27, listed as Melflufen
[4] = Number of refractory agents 0, Example 2a (n = 27)
[5] = Number of refractory agents 1, Example 2a (n = 27)
[6] = Number of refractory agents 2, Example 2a (n = 27)
[7] = Number of refractory agents 3, Example 2a (n = 27)
[8] = Number of refractory agents 4, Example 2a (n = 27)
[9] = Pomalidomide refractory, Example 2a, 27 evaluable
[10] = refractory status None, Example 2a, 27 evaluable
[11] = refractory status PI + IMiD + Alkylator, Example 2a, 27 evaluable

SMILES: CCOC(=O)[C@H](Cc1ccc(F)cc1)NC(=O)[C@@H](N)Cc1ccc(N(CCCl)CCCl)cc1.Cl [melflufen, L-Melphalanyl-4-fluoro-L-phenylalanine ethyl ester]
- Serious TEAE related to melflufen: Diarrhoea ([1]; Example 2a): (3) %
- Serious TEAE related to melflufen: Diarrhoea, number of patients ([1]; Example 2a): 1
- Serious TEAE related to melflufen: Escherichia coli sepsis ([1]; Example 2a): (3) %
- Serious TEAE related to melflufen: Escherichia coli sepsis, number of patients ([1]; Example 2a): 1
- Serious TEAE related to melflufen: Febrile Neutropenia ([1]; Example 2a): (5) %
- Serious TEAE related to melflufen: Febrile Neutropenia, number of patients ([1]; Example 2a): 2
- Serious TEAE related to melflufen: Neutropenia ([1]; Example 2a): (3) %
- Serious TEAE related to melflufen: Neutropenia, number of patients ([1]; Example 2a): 1
- Serious TEAE related to melflufen: Pneumonia ([1]; Example 2a): (8) %
- Serious TEAE related to melflufen: Pneumonia, number of patients ([1]; Example 2a): 3
- Serious TEAE related to melflufen: Pyrexia ([1]; Example 2a): (5) %
- Serious TEAE related to melflufen: Pyrexia, number of patients ([1]; Example 2a): 2
- Anemia, treatment related ≥grade 3 ([1]; Example 2a N = 38): (40) %
- Any treatment-related grade 3 and/or grade 4, grade 4 ([1]; Example 2a N = 38): (50) %
- Any treatment-related grade 3 and/or grade 4, ≥grade 3 ([1]; Example 2a N = 38): 87%
- Asthenia, treatment related ≥grade 3 ([1]; Example 2a N = 38): (5) %
- Blood and lymphatic system disorders, treatment related grade 4 ([1]; Example 2a N = 38): (47) %
- Blood and lymphatic system disorders, treatment related ≥grade 3 ([1]; Example 2a N = 38): (76) %
- Fatigue, treatment related ≥grade 3 ([1]; Example 2a N = 38): (5) %
- Febrile neutropenia, treatment related ≥grade 3 ([1]; Example 2a N = 38): (5) %
- General disorders and administration site conditions, treatment related ≥grade 3 ([1]; Example 2a N = 38): (18) %
- Hyperglycemia, treatment related grade 4 ([1]; Example 2a N = 38): (3) %
- Hyperglycemia, treatment related ≥grade 3 ([1]; Example 2a N = 38): (8) %
- Infections and infestations, treatment related ≥grade 3 ([1]; Example 2a N = 38): (8) %
- Investigations, treatment related ≥grade 3 ([1]; Example 2a N = 38): (10) %
- Leukopenia, treatment related grade 4 ([1]; Example 2a N = 38): (13) %
- Leukopenia, treatment related ≥grade 3 ([1]; Example 2a N = 38): (34) %
- Metabolism and nutrition disorders, treatment related grade 4 ([1]; Example 2a N = 38): (3) %
- Metabolism and nutrition disorders, treatment related ≥grade 3 ([1]; Example 2a N = 38): (8) %
- Neutropenia, treatment related grade 4 ([1]; Example 2a N = 38): (26) %
- Neutropenia, treatment related ≥grade 3 ([1]; Example 2a N = 38): (53) %
- Neutrophil count decreased, treatment related ≥grade 3 ([1]; Example 2a N = 38): (10) %
- Pneumonia, treatment related ≥grade 3 ([1]; Example 2a N = 38): (8) %
- Pyrexia, treatment related ≥grade 3 ([1]; Example 2a N = 38): (5) %
- Thrombocytopenia, treatment related grade 4 ([1]; Example 2a N = 38): (34) %
- Thrombocytopenia, treatment related ≥grade 3 ([1]; Example 2a N = 38): (68) %
- Any treatment-related grade 3 and/or grade 4, ≥grade 3 ([1]; Example 2a N = 38, listed as melflufen hydrochloride): (87) %
- patients with Serious TEAEs ([1]; Example 2a, 38 patients): 34%
- patients with TEAEs leading to death ([1]; Example 2a, 38 patients): 8%
- patients with TEAEs leading to dose reduction of melflufen ([1]; Example 2a, 38 patients): 18%
- patients with grade 3 or 4 TEAEs ([1]; Example 2a, 38 patients): 90%
- patients with treatment-related Serious TEAEs ([1]; Example 2a, 38 patients): 21%
- intracellular exposure (as AUC) of alkylating agents compared to an equimolar dosage of melphalan (MM cells): ≥ 20 fold
- Clinical Benefit Rate (CBR) ([2]; Evaluable ≥ 1 cycle, n 35): 43%
- Minimal Response (MR), patients ([2]; Evaluable ≥ 1 cycle, n 35): 4
- Overall Response Rate (ORR) ([2]; Evaluable ≥ 1 cycle, n 35): 31%
- Stable Disease (SD), patients ([2]; Evaluable ≥ 1 cycle, n 35): 12
- Very Good Positive Response (PR), patients ([2]; Evaluable ≥ 1 cycle, n 35): 2
- Clinical Benefit Rate (CBR) ([2]; Evaluable ≥ 2 cycles, n 27): 56%
- Minimal Response (MR), patients ([2]; Evaluable ≥ 2 cycles, n 27): 4
- Overall Response Rate (ORR) ([2]; Evaluable ≥ 2 cycles, n 27): 41%
- Positive Response (PR), patients ([2]; Evaluable ≥ 2 cycles, n 27): 9
- Progressive Disease (PD), patients ([2]; Evaluable ≥ 2 cycles, n 27): 1
- Stable Disease (SD), patients ([2]; Evaluable ≥ 2 cycles, n 27): 11
- Very Good Positive Response (PR), patients ([2]; Evaluable ≥ 2 cycles, n 27, 40 mg over 30 min + dexamethasone): 2
- Clinical Benefit Rate (CBR) [2, 3]: 56%
- Overall Response Rate (ORR) [2, 3]: 41%
- median duration of response (DOR) ([2]; Example 2a, 4 events in 11 responding patients): 9.6 months
- median progression free survival (PFS) ([2]; Example 2a, 13 events in 27 patients): 9.4 months
- hazard ratio for melflufen compared to pomalidomide (PFS) ([2]; Example 2a, all treated n=38 vs published pomalidomide trial): 0.68 (0.44-1.05)
- CBR(≥MR) [2, 4]: (100) %
- ORR (≥PR) [2, 4]: (100) %
- CBR(≥MR) [2, 5]: (54) %
- ORR (≥PR) [2, 5]: (38) %
- CBR(≥MR) [2, 6]: (57) %
- ORR (≥PR) [2, 6]: (43) %
- CBR(≥MR) [2, 7]: (63) %
- ORR (≥PR) [2, 7]: (44) %
- CBR(≥MR) [2, 8]: (71) %
- ORR (≥PR) [2, 8]: (43) %
- CRR (≥MR) [2, 9]: (50) %
- ORR (≥PR) [2, 9]: (30) %
- reduction in risk of death over 16 months compared to pomalidomide ([2]; RRMM patient population, Example 2a): 32%
- CRR (≥MR) ([2]; Triple refractory (2 PI/ImiD + 1 ImiD/PI), Example 2a, 27 evaluable): (60) %
- best response of minimal response (MR) or better, n patients ([2]; of 27 evaluable): 15
- confirmed PR, n patients ([2]; of 27 evaluable): 11
- CRR (≥MR) ([2]; refractory status Alkylator, Example 2a, 27 evaluable): (64) %
- CRR (≥MR) ([2]; refractory status IMiD, Example 2a, 27 evaluable): (52) %
- CRR (≥MR) [2, 10]: (100) %
- ORR (≥PR) [2, 10]: (100) %
- CRR (≥MR) [2, 11]: (44) %
- ORR (≥PR) [2, 11]: (33) %
- CRR (≥MR) ([2]; refractory status PI + IMiD, Example 2a, 27 evaluable): (44) %
- CRR (≥MR) ([2]; refractory status PI, Example 2a, 27 evaluable): (47) %
